Drawing on PubChem BioAssay (NCI), this text covers GI50 and TGI for eleven molecules.

Some test systems named below: K-562 leukemia; SF-539 CNS; OVCAR-8 ovarian; SK-OV-3 ovarian; HOP-62 NSCLC; HT29 colon; M14 melanoma; A498 renal; RPMI-8226 leukemia; CAKI-1 renal.
Test in all cases: NCI tumour cell line growth inhibition, 48 h

SMILES strings stand for the structures.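 Assay format: 96-well plates, 48-hour exposure. GI50 is the concentration that inhibits growth by half. TGI is the concentration that stops growth completely.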 Bounds are passed on as bounds.

For the molecule `Cn1c(-c2nonc2N)nc2cnccc21`, the GI50 in the assay with K-562 leukemia is more than 25 µM; with SF-539 CNS, 12.2 µM; with OVCAR-8 ovarian, more than 25 µM; in the assay on SK-OV-3 ovarian, more than 25 µM; in the assay on HOP-62 NSCLC, more than 25 µM; in the assay on HT29 colon it was more than 25 µM. For the same molecule, the GI50 was more than 25 µM in the assay with M14 melanoma, 16 µM with A498 renal, more than 25 µM in the assay with RPMI-8226 leukemia and 13.7 µM with CAKI-1 renal. Moreover, the TGI in the assay on K-562 leukemia, in the assay with SF-539 CNS, with OVCAR-8 ovarian, in the assay on SK-OV-3 ovarian, with HOP-62 NSCLC and in the assay with HT29 colon was more than 25 µM throughout. In addition, the TGI with M14 melanoma, in the assay on A498 renal, with RPMI-8226 leukemia and in the assay on CAKI-1 renal was more than 25 µM in each case.
As to `Cn1cc(C2=C(c3ccc(OC[C@@H](O)CO)cc3)C(=O)NC2=O)c2ccccc21`, the GI50 with K-562 leukemia, in the assay with SF-539 CNS, in the assay with OVCAR-8 ovarian, in the assay with SK-OV-3 ovarian, in the assay with HOP-62 NSCLC and in the assay on HT29 colon was more than 25 µM in each case. For the same molecule, the GI50 with M14 melanoma is more than 25 µM; in the assay on A498 renal, 3.54 µM; with RPMI-8226 leukemia, more than 25 µM; with CAKI-1 renal, more than 25 µM. Besides, the TGI in the assay on K-562 leukemia, in the assay on SF-539 CNS, in the assay with OVCAR-8 ovarian, with SK-OV-3 ovarian, with HOP-62 NSCLC and in the assay on HT29 colon was more than 25 µM each time. Moreover, the TGI in the assay on M14 melanoma was more than 25 µM; in the assay on A498 renal, 15.3 µM; in the assay with RPMI-8226 leukemia, more than 25 µM; in the assay on CAKI-1 renal, more than 25 µM.
For the molecule `CN(C)CCNC(=O)c1cccc2nc3c(Cl)cccc3nc12`, the TGI in the assay on K-562 leukemia is 8.74 µM; in the assay with SF-539 CNS, 16.8 µM; in the assay with OVCAR-8 ovarian, more than 44.3 µM; in the assay on SK-OV-3 ovarian, more than 31.6 µM; with HOP-62 NSCLC, 26.3 µM; in the assay with HT29 colon, 15.9 µM. The TGI in the assay on M14 melanoma is more than 36.8 µM; in the assay with A498 renal, 16.9 µM; with RPMI-8226 leukemia it was 82.6 µM; with CAKI-1 renal, more than 70.8 µM.
With `O=[N+]([O-])C(=C(Sc1ccccc1)Sc1ccccc1)C(Cl)=C(Cl)Cl`, the TGI in the assay on K-562 leukemia turned out to be 0.701 µM; in the assay with SF-539 CNS, 5.81 µM; with OVCAR-8 ovarian it was 0.831 µM; with SK-OV-3 ovarian, 24.6 µM; in the assay with HOP-62 NSCLC, 4.09 µM; in the assay with HT29 colon it was 0.487 µM. Moreover, the TGI in the assay with M14 melanoma stood at 1.17 µM; in the assay with A498 renal it was 6.94 µM; in the assay on RPMI-8226 leukemia, 0.0712 µM; in the assay with CAKI-1 renal, 1.61 µM.
As to `C/C(=N\NC(N)=S)c1ccc(C)cc1C`, the TGI with K-562 leukemia, with SF-539 CNS, with OVCAR-8 ovarian, in the assay on SK-OV-3 ovarian, in the assay on HOP-62 NSCLC and in the assay with HT29 colon was more than 100 µM each time. Besides, the TGI in the assay on M14 melanoma, in the assay on A498 renal, in the assay on RPMI-8226 leukemia and with CAKI-1 renal was more than 100 µM in each case.
`N#Cc1cnn2ccn(C3OC(COC(=O)c4ccccc4)C(OC(=O)c4ccccc4)C3OC(=O)c3ccccc3)c12` (stereo not given): the TGI is more than 21.5 µM in the assay with K-562 leukemia; more than 21.5 µM with SF-539 CNS; more than 46.4 µM in the assay with OVCAR-8 ovarian; more than 21.5 µM in the assay on SK-OV-3 ovarian; more than 21.5 µM in the assay with HOP-62 NSCLC; more than 21.5 µM with HT29 colon. Also, the TGI in the assay on M14 melanoma is more than 21.5 µM; in the assay with A498 renal, 21.5 µM; in the assay on RPMI-8226 leukemia it was more than 21.5 µM; in the assay with CAKI-1 renal, 21.5 µM.
As for `CN1CCCNCCN(CCc2ccccn2)CCCN(C)CC1`, the TGI in the assay on K-562 leukemia is more than 66.1 µM; with SF-539 CNS it was more than 100 µM; in the assay on OVCAR-8 ovarian, more than 100 µM; in the assay with SK-OV-3 ovarian, more than 100 µM; in the assay with HOP-62 NSCLC it was more than 100 µM; in the assay on HT29 colon, more than 100 µM. For the same molecule, the TGI with M14 melanoma was more than 100 µM; in the assay with A498 renal it was more than 100 µM; in the assay on RPMI-8226 leukemia it was more than 70.4 µM; with CAKI-1 renal, more than 100 µM.
As for `CC(=O)OCC1OC(n2c(=S)[nH]c(-c3ccccc3)c(C#N)c2=O)C(OC(C)=O)C(OC(C)=O)C1OC(C)=O` (stereo not given), the TGI in the assay with K-562 leukemia, in the assay with SF-539 CNS, in the assay on OVCAR-8 ovarian, in the assay on SK-OV-3 ovarian, in the assay on HOP-62 NSCLC and in the assay on HT29 colon was more than 100 µM each time. The TGI in the assay on M14 melanoma, in the assay with A498 renal, in the assay with RPMI-8226 leukemia and in the assay with CAKI-1 renal was more than 100 µM in each case.
For `COc1ccc(/C=C(/C(=O)O)c2cc(OC)c(OC)c(OC)c2)cc1`, the TGI in the assay with K-562 leukemia is more than 100 µM; in the assay on SF-539 CNS, 51.2 µM; in the assay on OVCAR-8 ovarian, more than 100 µM; with SK-OV-3 ovarian, more than 100 µM; in the assay with HOP-62 NSCLC, more than 100 µM; in the assay with HT29 colon, more than 100 µM. For the same molecule, the TGI in the assay with M14 melanoma is 99.1 µM; in the assay with A498 renal it was more than 100 µM; in the assay with RPMI-8226 leukemia, more than 100 µM; in the assay on CAKI-1 renal, more than 100 µM.
For the molecule `O=C(O)Cc1c[nH]c2ccc(F)cc12`, the TGI with K-562 leukemia, with SF-539 CNS, in the assay with OVCAR-8 ovarian, with SK-OV-3 ovarian, in the assay with HOP-62 NSCLC and in the assay on HT29 colon was more than 100 µM in each case. Further, the TGI with M14 melanoma, in the assay on A498 renal, in the assay on RPMI-8226 leukemia and with CAKI-1 renal was more than 100 µM in each case.
For `CCCNC(=O)OCc1c(COC(=O)NCCC)c(-c2ccc(Cl)c(Cl)c2)n2c1CCC2`, the TGI in the assay with K-562 leukemia was 26.6 µM; in the assay with SF-539 CNS, 11.3 µM; in the assay with OVCAR-8 ovarian, 16.9 µM; with SK-OV-3 ovarian, 10.5 µM; with HOP-62 NSCLC, 22.3 µM; in the assay on HT29 colon, 19.2 µM. Further, the TGI was 24.4 µM in the assay with M14 melanoma, 3.24 µM in the assay on A498 renal, 24.4 µM in the assay with RPMI-8226 leukemia and 8.2 µM in the assay on CAKI-1 renal.
